The test system of assay [1] is granulocytes. As to the kind of experiment: Inhibition of ABA-induced chemotaxis (granulocyte migration, ChemoTx). The format is cell-based, human. How it is done: After ON (overnight) incubation in complete DMEM/F12, granulocytes were washed in HBSS and then were resuspended at the concentration of 1x10^7 cells/ml in chemotaxis buffer (HBSS:PBS:5% albumin; 39:16:1).
Chemotaxis was carried out on 96-well plates ChemoTx system microplates (Neuro Probe, Inc., Gaithersburg, MD, U.S.A.) with a polycarbonate filter with 3 µm-diameter pores. The compound prepared according to example 1 was diluted in chemotaxis buffer at various concentrations (5 µM, 100 nM, 1 nM, 0.1 nM) and was added, either alone or together with a solution of 1 µM ABA to the bottom of the plate. The suspension of the cells (25 µl/well) was added to the filter and the plate was incubated for 90 minutes at 37 °C. The migrated cells were transferred to a white 96-well plate and were counted with 60 µl of a solution containing 0.2 % (v/v) of Nonidet P40 and 1 µM Sitox green. After a 20-minute incubation at 37 °C, the fluorescence was measured with Fluostar OPTIMA fluorometer (excitation wavelength λexc = 485 nm and emission wavelength λemis = 520 nm) and the cell number was computed by using a standard cellular curve obtained from serial diltion cellular suspension of granulocytes. The result is expressed as the "chemotactic index" (CI), which corresponds to the ratio of the number of cells migrated towards the chemoattractant divided by the number of cells migrated towards the substrate). A chemotactic index higher than 1 is indicative of chemoattraction of cells. The test was carried out three times in sextuplicate.

Assay [2] deals with human granulocytes. As to the kind of experiment: Production of reactive oxygen species (ROS), H2DCFDA fluorescence. The format is cell-based. The method, then:
Human granulocitytes, after ON incubation in complete DMEM/F12, were resuspended at 1x10^7/ml in HBSS and spiked with the fluorescent probe (10 µM), specific for ROS determination, 2',7'-dichlorodihydrofluorescein diacetate (H2DCFDA), for 30 min at 37 °C.
They were subsequently washed twice with HBSS and resuspended at 1x10^6 cells/ml in HBSS and then were kept at room temperature for approximately 30 minutes.
The cells (100 µl) were added to a 96-well plate pre-loaded with ABA 1 µM, either alone or with increasing concentrations of the compound prepared according to example 1.
The increase in fluorescence was measured at 10-sec intervals for 10 minutes, with Fluostar OPTIMA fluorometer (λexc: 485; λemis: 520).
(§1) The experiment was carried out three times in triplicate.
Human granulocutes stimulated with 1 µM ABA become activated, and produce quite large amounts of reactive oxygen species (ROS) (Bruzzone, jbc 2007). The results were expressed as the average of the results obtained from three independent experiments, from which the background value, obtained from the control, had been subtracted. TABLE 4. Inhibition of ROS production, in human granulocytes stimulated with ABA, by compound prepared according to example 1.

Assay [3] has as its system human granulocytes. As to the kind of experiment: Inhibition of ABA-induced phagocytosis of fluorescent beads. It counts as cell-based. How it is done: Human granulocytes, after ON incubation in complete DMEM/F12, were resuspended at 1x10^6 cells/100 µl in HBSS.
For the experiment, fluorescent polystyrene (carboxylate-modified polystyrene) beads were used, of 1 µm of diameter (Sigma-Aldrich) A volume of 100 µl of cellular suspension was subdivided into eppendorf, in which a 10 minutes long preincubation was carried out with 20 µM ABA, either alone, or together with increasing concentrations of compound prepared according to example 1.
After the end of the preincubation, the beads were added for 5, 10 and 30 minutes. For each experimental point, 2.5 x 10^5 beads were used.
At the end of the incubations, the cells were collected by centrifugation (200xg for 10 seconds), were washed with 1 ml of HBSS at 0 °C and were centrifuged once again at 200xg for 10 seconds. The supernatant was discarded and the cells were resuspended in 350 µl of HBSS and added to 96-well plates of white colour (100 µl per well).
The increase in fluorescence was measured with Fluostar OPTIMA fluorometer (λexc: 485; λemis: 520).
as §1
Human grnulocytes were preincubated for 10 minutes at 20 °C with 20 µM ABA, either alone or in the presence of compound prepared according to example 1, at various concentrations. In order to evaluate the phagocytic capability of granulocytes, fluorescent beads were added and, after 15 and 30 minutes, the fluorescence absorbed by the cells was determined as described in Materials and Methods The results were expressed as the average of the results obtained from three independent experiments, from which the background value, obtained from the control, had been subtracted (TABLE 5). TABLE 5. Inhibition of phagocitosis, in human granulocytes stimulated with ABA, by compound prepared according to example 1.

For assay [4], the system named is INS-1 cells. As to the kind of experiment: Insulin release (secretion index) by INS-1 cells, scr or LANCL-2 silenced. The conditions noted are these: 30 minutes. The format is cell-based, rat. The method, then: Insulinoma cells of INS-1 rat were transfected with LANCL-2 silencing RNAs LANCL-2 (siRNAL2) or with nonsense RNA (scr) and were incubated in 5 mM glucose (LG) oppure 25 mM glucose (HG), in the absence or in the presence of 100 nM ABA or of compound according to example 1 (100 nM). Insulin release is expressed as the secretion index (SI) relative to insulin release in LG. As regards the experimental procedure, with the exception of use of compound according to example 1, reference can be made to the following paper, in which the properties which are the subject-matter of the present example were investigated for only ABA. Sturla L, Fresia C, Guida L, Grozio A, Vigliarolo T, Mannino E, Millo E, Bagnasco L, Bruzzone S, De Flora A, Zocchi E. Binding of abscisic acid to human LANCL2. Biochem Biophys Res Commun. 2011 Nov 18;415(2):390-5. TABLE 12. Effect of ABA and of compound from example 1 on insulin release (SI) by […] at 30 minutes.

Where [5] appears, read: LANCL2 siRNA, HG (25 mM glucose), substance 100 nM.
The mark [6] stands for this setting: LANCL2 siRNA, LG (5 mM glucose), substance 100 nM.
The mark [7] stands for this setting: SCR, HG (25 mM glucose), substance 100 nM.
Where [8] appears, read: SCR, LG (5 mM glucose), substance 100 nM.

The record followed here is EP2511272B1, “Synthetic analogues of abscisic acid with anti-inflammatory and insulin release stimulation effects on human cells” (Universita' degli Studi di Genova, priority 2011, dated 2012).

pIC50: −log10 of the molar value. Read-outs that look alike come from different tables or passages of the source.

For orientation: pIC50 means −log10 of the IC50, conventionally taken in molar units. In general, inhibition refers to the share of the control response that was lost under treatment. In the case of `CC(=C/C(=O)O)/C=C/C1(O)C(C)(C)CC(=O)C2OC21C` (stereo not drawn) [Example 1, 2'α,3'α-dihydro-2'α,3'α-epoxyabscisic acid], the “CI±SD (chemotactic index)” value was 1.37±0.05 in assay [1] (ABA 1 µM + compound 0.1 nM), 1.32±0.05 in assay [1] (ABA 1 µM + compound 1 nM), 1.12±0.04 in assay [1] (ABA 1 µM + compound 100 nM) and 0.78±0.03 in assay [1] (ABA 1 µM + compound 5 µM). Also, the pIC50 in assay [1] (Homo sapiens) is roughly 9.00; in assay [2] (Homo sapiens, inhibiting the production of ROS, ABA 1 µM), roughly 9.30; in assay [3] (Homo sapiens, phagocytosis induced by 20 µM ABA) it was roughly 9.30. The compound also returned an inhibition at 0.0001 µM in assay [1] (Homo sapiens, migration towards ABA 1 µM, compound 0.1 nM) of 38%. For the same compound, the inhibition at 0.001 µM amounted to 47% in assay [1] (Homo sapiens, migration towards ABA 1 µM, compound 1 nM) and 70% in assay [2] (Homo sapiens, ROS production, ABA 1 µM, compound 1 nM). This compound also displayed an inhibition at 0.1 µM in assay [1] (Homo sapiens, migration towards ABA 1 µM, compound 100 nM) of 80%. In assay [1] (Homo sapiens, migration towards ABA 1 µM, compound 5 µM), this compound returned an inhibition at 5 µM of 100%. For the same compound, the “Increase in fluorescence (delta OD)±SD” value is recorded as 1325±26.5 delta OD in assay [2] (ABA 1 µM + compound 0.01 nM), 680±13.6 delta OD in assay [2] (ABA 1 µM + compound 0.5 nM), 371±1.9 delta OD in assay [2] (ABA 1 µM + compound 1 nM) and 46±0.2 delta OD in assay [2] (ABA 1 µM + compound 1 µM). For the same compound, in assay [2] (Homo sapiens, ROS production, ABA 1 µM, compound 0.01 nM), the inhibition at 10 pM came to 0%. Besides, the inhibition at 0.0005 µM in assay [2] (Homo sapiens, ROS production, ABA 1 µM, compound 0.5 nM) was found to be 45%; in assay [3] (Homo sapiens, 0.25 h, ABA 20 µM + compound 0.5 nM, 15 min, read-out: Inhibition % (@ 15 min)), 77%; in assay [3] (Homo sapiens, 0.5 h, ABA 20 µM + compound 0.5 nM, 30 min, read-out: Inhibition % (@ 30 min)), 43%. Besides, the inhibition at 1 µM worked out at 96% in assay [2] (Homo sapiens, ROS production, ABA 1 µM, compound 1 µM); 98% in assay [3] (Homo sapiens, 0.25 h, ABA 20 µM + compound 1 µM, 15 min, read-out: Inhibition % (@ 15 min)); 100% in assay [3] (Homo sapiens, 0.5 h, ABA 20 µM + compound 1 µM, 30 min, read-out: Inhibition % (@ 30 min)). The “Increase in fluorescence ±SD (@ 15 min)” value in assay [3] (ABA 20 µM + compound 0.5 nM, 15 min) is 210±2; in assay [3] (ABA 20 µM + compound 10 nM, 15 min) it was 148±2; in assay [3] (ABA 20 µM + compound 1 µM, 15 min), 17. In addition, the “Increase in fluorescence ±SD (@ 30 min)” value in assay [3] (ABA 20 µM + compound 0.5 nM, 30 min) came out at 1423±3; in assay [3] (ABA 20 µM + compound 10 nM, 30 min), 515±10; in assay [3] (ABA 20 µM + compound 1 µM, 30 min) it was 0. Further, the inhibition at 0.01 µM in assay [3] (Homo sapiens, 0.25 h, ABA 20 µM + compound 10 nM, 15 min, read-out: Inhibition % (@ 15 min)) was found to be 84%; in assay [3] (Homo sapiens, 0.5 h, ABA 20 µM + compound 10 nM, 30 min, read-out: Inhibition % (@ 30 min)), 80%. Also, the “insulin release, secretion index (SI) relative to LG” value is 3 in assay [4] (setting [5]); 8 in assay [4] (LANCL2 siRNA, HG, ABA 100 nM + compound 100 nM together); 2 in assay [4] (setting [6]); 5 in assay [4] (LANCL2 siRNA, LG, ABA 100 nM + compound 100 nM together); 6 in assay [4] (setting [7]); 12 in assay [4] (SCR, HG, ABA 100 nM + compound 100 nM together). Also, the “insulin release, secretion index (SI) relative to LG” value came out at 2.5 in assay [4] (setting [8]) and 8.5 in assay [4] (SCR, LG, ABA 100 nM + compound 100 nM together).
Take `CC1=CC(=O)CC(C)(C)C1(O)/C=C/C(C)=C\C(=O)O` (racemic) [ABA, (2Z,4E)-5-(1-hydroxy-2,6,6-trimethyl-4-oxo-2-cyclohexen-1-yl)-3-methyl-2,4-pentadienoic acid, reference compound]: the “CI±SD (chemotactic index)” value in assay [1] (ABA 1 µM alone) is given as 1.63±0.10. Also, the “Increase in fluorescence (delta OD)±SD” value in assay [2] (ABA 1 µM alone) amounted to 1238±8.7 delta OD. For the same compound, the “Increase in fluorescence ±SD (@ 15 min)” value in assay [3] (ABA 20 µM alone, 15 min) is listed as 909±47. Further, in assay [3] (ABA 20 µM alone, 30 min), the “Increase in fluorescence ±SD (@ 30 min)” value was 2476±50. In addition, the “insulin release, secretion index (SI) relative to LG” value in assay [4] (setting [5]) is given as 1.7; in assay [4] (setting [6]), 1; in assay [4] (setting [7]), 6.4; in assay [4] (setting [8]) it was 1.7.
